In patent US9676793B2, “Co-crystals of 5-amino-2-oxothiazolo[4,5-d]pyrimidin-3(2H)-yl-5-hydroxymethyl tetrahydrofuran-3-yl acetate and methods for preparing and using the same” (Hoffmann-La Roche Inc., priority 2014, dated 2017):
Read-outs that look alike come from different tables or passages of the source.

How the values were obtained:
HBV = assay: microbe, parasite or virus in culture
Procedure: Direct inhibition of viral replication was evaluated by monitoring the levels of secreted HBV DNA and the levels of HBV surface antigen (HBsAg) in cultures containing HBV infected HepaRG cells.
After three days incubation, the combined medium was replaced with differentiation medium and the cells were maintained in the differentiation medium for an additional 2 to 4 weeks. The differentiation medium was renewed every 2 to 3 days throughout the incubation period. Differentiated HepaRG cells (HepaRGd) display hepatocyte-like cell islands surrounded by monolayer of biliary-like cells. Prior to HBV infection and compound treatment, HepaRGd cells were seeded into collagen I coated 96-well plates (Gibco, Cat# A11428-03) at 50,000 to 60,000 cells per well. Cells were allowed to recover their differentiated phenotype in 96-well plates for at least 1 week after plating prior to HBV infection.
HBV inoculum was collected from HepG2.2.15 cultured cells, a cell line that supports HBV (genotype D, strain ayw) replication and virion secretion as disclosed in Sells M A., et al., PNAS, 84(4): 1005-1009. HepG2.2.15 cells were maintained in DMEM+GlutaMAX-I (Invitrogen) containing 1× Pen/Strep (Invitrogen), 10% FBS, and 0.25 mg/ml G-418 (Invitrogen) using hyperflasks (Corning) pre-coated with collagen I (BD Biosciences). Upon reaching confluency, HepG2.2.15 culture media was replaced with DMEM+GlutaMAX-I containing 1× Pen-Strep, 2.5% FBS, and 1% DMSO for 3 days and then replaced with DMEM+GlutaMAX-I containing 1× Pen-Strep and 1% DMSO. The 1% DMSO containing media was collected every 3 to 4 days over a two week period and HBV infectious virions and subviral particles were pelleted by ultracentrifugation through a 20% sucrose cushion in a Ti 45 Beckman rotor at 45,000 rpm for 3 hours at 4° C. The pellets were resuspended in WEM at a concentration of 10^8-10^9 genome equivalents (GE) per ml, determined by real time PCR as described below using a genotype D HBV containing plasmid DNA as an internal standard. To evaluate the infectivity of the inoculum, HepaRGd cells in 96-well plates were infected in differentiation medium containing 50 to 200 GE/cell and 4% PEG 8000 (PolyEthylene Glycol 8000, Sigma, Cat# P5413-500G) for 16 hr at 37° C. At the end of the infection, HBV inoculum was removed and cells were washed 3 times with differentiation medium. Differentiation medium was replenished every 2 to 3 days and HBV replication was monitored by measuring secreted HBV DNA, hepatitis B surface (HBsAg) and/or e (HBeAg) antigens.
HBsAg was detected from 50 μL of HBV infected HepaRG supernatants using the HBsAg chemiluminescence immunoassay (CLIA) kit following instructions as recommended by the manufacturer (Autobio Diagnostics Co., Zhengzhou, China). HBV DNA was extracted from 50 μL of HBV infected HepaRGd supernatants using the MagNA Pure 96 DNA and Viral NA Small Volume Kit (Roche, Cat#05 467 497 001). […] All PCR reactions were performed using the ViiA7 Real Time PCR system (Life Technologies).
Both direct and indirect inhibitory activity of HBV replication was measured. […] Aliquots of these reagents were added to independent wells of a 96-well culture plate containing HBV infected HepaRGd cells on day 4 post infection. The final concentration of DMSO in each well was 2%. The HepaRGd cells used in the inhibition study were maintained in differentiation media containing 2% DMSO.

[1] = Cell viability by CellTiter-Glo, direct treatment; assay type: cell-based; conditions: human; for cytotoxicity at 7 days, 0.82 μM / cytotoxicity at 7 days, 2.47 μM / cytotoxicity at 7 days, 7.41 μM / cytotoxicity at 7 days, 22.22 μM / cytotoxicity at 7 days, 66.67 μM / cytotoxicity at 7 days, 200 μM: read-out: Cell viability (% inhibition)
[2] = system: HBV infected HepaRGd cells; assay: Cell viability by CellTiter-Glo, direct treatment; assay type: cell-based; conditions: for CC50: read-out: EC/CC50 (μM), Cell viability
human PBMCs = assay: Cytokine profiling of conditioned media from stimulated PBMCs; assay type: cell-based; conditions: no release with DMSO
Procedure: TLR-7 agonists stimulate the production cytokines and chemokines from human PBMC's. Conditioned medium was obtained by contacting cultured PBMC's with DMSO (control) or 100 μM R06871765 (drug) was contacted with HBV infected HepaRGd cells.
The anti-viral effect of conditioned medium obtained cultured PBMC's treated with R06871765 most likely is due to the release of cytokines and chemokines from PBMC's.

Nc1nc2c(sc(=O)n2[C@@H]2O[C@H](CO)C[C@H]2O)c(=O)[nH]1 [R06871765]
EC50 (HBV; Hepatitis B virus, 168 h, read-out: EC50 (HBV DNA or HBsAg)): > 200 µM | CC50 (HBV; Hepatitis B virus, read-out: EC/CC50 (μM), HBV DNA): > 200 µM | CC50 (HBV; Hepatitis B virus, read-out: EC/CC50 (μM), HBsAg): > 200 µM | inhibition at 0.82 µM (HBV; Hepatitis B virus, read-out: HBV DNA (% inhibition), 0.82 μM, EXP ID 10/15/2012 AL): -1.24% | inhibition at 0.82 µM (HBV; Hepatitis B virus, read-out: HBV DNA (% inhibition), 0.82 μM, EXP ID 11/1/2012): 12.2% | inhibition at 2.47 µM (HBV; Hepatitis B virus, read-out: HBV DNA (% inhibition), 2.47 μM, EXP ID 10/15/2012 AL): -16% | inhibition at 2.47 µM (HBV; Hepatitis B virus, read-out: HBV DNA (% inhibition), 2.47 μM, EXP ID 11/1/2012): -0.77% | inhibition at 7.41 µM (HBV; Hepatitis B virus, read-out: HBV DNA (% inhibition), 7.41 μM, EXP ID 10/15/2012 AL): -17.4% | inhibition at 7.41 µM (HBV; Hepatitis B virus, read-out: HBV DNA (% inhibition), 7.41 μM, EXP ID 11/1/2012): -23.5% | inhibition at 22.22 µM (HBV; Hepatitis B virus, read-out: HBV DNA (% inhibition), 22.22 μM, EXP ID 10/15/2012 AL): 4.96% | inhibition at 22.22 µM (HBV; Hepatitis B virus, read-out: HBV DNA (% inhibition), 22.22 μM, EXP ID 11/1/2012): 5.69% | inhibition at 66.67 µM (HBV; Hepatitis B virus, read-out: HBV DNA (% inhibition), 66.67 μM, EXP ID 10/15/2012 AL): -0.65% | inhibition at 66.67 µM (HBV; Hepatitis B virus, read-out: HBV DNA (% inhibition), 66.67 μM, EXP ID 11/1/2012): 21.1% | inhibition at 200 µM (HBV; Hepatitis B virus, read-out: HBV DNA (% inhibition), 200 μM, EXP ID 10/15/2012 AL): 12.2% | inhibition at 200 µM (HBV; Hepatitis B virus, read-out: HBV DNA (% inhibition), 200 μM, EXP ID 11/1/2012): 3.11% | inhibition at 0.82 µM (HBV; Hepatitis B virus, read-out: HBsAg (% inhibition), 0.82 μM, EXP ID 10/15/2012 AL): 10.5% | inhibition at 0.82 µM (HBV; Hepatitis B virus, read-out: HBsAg (% inhibition), 0.82 μM, EXP ID 10/15/2012 VL): 14.7% | inhibition at 0.82 µM (HBV; Hepatitis B virus, read-out: HBsAg (% inhibition), 0.82 μM, EXP ID 11/1/2012): 14.8% | inhibition at 2.47 µM (HBV; Hepatitis B virus, read-out: HBsAg (% inhibition), 2.47 μM, EXP ID 10/15/2012 AL): -4.7% | inhibition at 2.47 µM (HBV; Hepatitis B virus, read-out: HBsAg (% inhibition), 2.47 μM, EXP ID 10/15/2012 VL): 11.8% | inhibition at 2.47 µM (HBV; Hepatitis B virus, read-out: HBsAg (% inhibition), 2.47 μM, EXP ID 11/1/2012): 14.7% | inhibition at 7.41 µM (HBV; Hepatitis B virus, read-out: HBsAg (% inhibition), 7.41 μM, EXP ID 10/15/2012 AL): -11.7% | inhibition at 7.41 µM (HBV; Hepatitis B virus, read-out: HBsAg (% inhibition), 7.41 μM, EXP ID 10/15/2012 VL): 3.92% | inhibition at 7.41 µM (HBV; Hepatitis B virus, read-out: HBsAg (% inhibition), 7.41 μM, EXP ID 11/1/2012): 1.81% | inhibition at 22.22 µM (HBV; Hepatitis B virus, read-out: HBsAg (% inhibition), 22.22 μM, EXP ID 10/15/2012 AL): 0.44% | inhibition at 22.22 µM (HBV; Hepatitis B virus, read-out: HBsAg (% inhibition), 22.22 μM, EXP ID 10/15/2012 VL): 3.98% | inhibition at 22.22 µM (HBV; Hepatitis B virus, read-out: HBsAg (% inhibition), 22.22 μM, EXP ID 11/1/2012): 0.66% | inhibition at 66.67 µM (HBV; Hepatitis B virus, read-out: HBsAg (% inhibition), 66.67 μM, EXP ID 10/15/2012 AL): -2.13% | inhibition at 66.67 µM (HBV; Hepatitis B virus, read-out: HBsAg (% inhibition), 66.67 μM, EXP ID 10/15/2012 VL): 14.5% | inhibition at 66.67 µM (HBV; Hepatitis B virus, read-out: HBsAg (% inhibition), 66.67 μM, EXP ID 11/1/2012): 5.02% | inhibition at 200 µM (HBV; Hepatitis B virus, read-out: HBsAg (% inhibition), 200 μM, EXP ID 10/15/2012 AL): 2.48% | inhibition at 200 µM (HBV; Hepatitis B virus, read-out: HBsAg (% inhibition), 200 μM, EXP ID 10/15/2012 VL): 4.25% | inhibition at 200 µM (HBV; Hepatitis B virus, read-out: HBsAg (% inhibition), 200 μM, EXP ID 11/1/2012): 16% | direct inhibition of HBV viral replication (HBV; cultured HepaRG cells): did not exert any direct anti-HBV effect | CC50 (HBV; read-out: EC/CC50 (μM), HBV DNA, EXP ID 11/1/2012): > 200 µM | CC50 (HBV; read-out: EC/CC50 (μM), HBsAg, EXP ID 10/15/2012 VL): > 200 µM | CC50 (HBV; read-out: EC/CC50 (μM), HBsAg, EXP ID 11/1/2012): > 200 µM | cytotoxicity at 7 days, 0.82 μM ([1]; EXP ID 10/15/2012 AL): -2.58% | cytotoxicity at 7 days, 0.82 μM ([1]; EXP ID 10/15/2012 VL): 3.23% | cytotoxicity at 7 days, 2.47 μM ([1]; EXP ID 10/15/2012 AL): -2.57% | cytotoxicity at 7 days, 2.47 μM ([1]; EXP ID 10/15/2012 VL): 0.54% | cytotoxicity at 7 days, 7.41 μM ([1]; EXP ID 10/15/2012 AL): -2.85% | cytotoxicity at 7 days, 7.41 μM ([1]; EXP ID 10/15/2012 VL): -1.5% | cytotoxicity at 7 days, 22.22 μM ([1]; EXP ID 10/15/2012 AL): -2.43% | cytotoxicity at 7 days, 22.22 μM ([1]; EXP ID 10/15/2012 VL): -1.37% | cytotoxicity at 7 days, 66.67 μM ([1]; EXP ID 10/15/2012 AL): 3.7% | cytotoxicity at 7 days, 66.67 μM ([1]; EXP ID 10/15/2012 VL): 7.34% | cytotoxicity at 7 days, 200 μM ([1]; EXP ID 10/15/2012 AL): 12.3% | cytotoxicity at 7 days, 200 μM ([1]; EXP ID 10/15/2012 VL): 22% | CC50 at 7 days ([1]; HBV infected HepaRGd cells): > 200 µM | CC50 ([2]; EXP ID 10/15/2012 AL): > 200 µM | CC50 ([2]; EXP ID 10/15/2012 VL): > 200 µM | maximum reduction in viability ([2]; highest concentration (200 μM)): about 17% | release of IFN-α, IL-6, TNF-α and IP-10 from PBMCs (human PBMCs): induced release
